Source: patent US20210379035A1, “Methods Of Treating Fabry Patients Having Renal Impairment” (Amicus Therapeutics, Inc., priority 2017, published 2021)

Legend:
plasma lyso-GB3 = assay: ERT-experienced study: plasma lyso-Gb3; assay type: in vivo, human; settings: Migalastat 0-18 months
Protocol: One study was a 24-month trial, including a 6-month double-blind, placebo-controlled period, in 67 ERT-naïve patients. The other study was an active-controlled, 18-month trial in 57 ERT-experienced patients with a 12-month open-label extension (OLE). Both the ERT-naïve and ERT-experienced studies included Fabry patients having an eGFR of ≥30 mL/min/1.73 m^2.
A further analysis of data from these studies examined annualized change in eGFRCKD-EPI, LVMi, WBC α-Gal A activity and plasma lyso-Gb3 levels based on renal function at baseline. The results for each renal subgroup are shown in Table 9 below, with the ERT-naïve study subgroups based on eGFRMDRD and the ERT-experienced study subgroups based on mGFRiohexol.

α-Gal A = molecular target: T1, α-Gal A (Homo sapiens, UniProt P06280); settings: selective and reversible binding; cited from earlier work
T1 sequence (P06280 32-429): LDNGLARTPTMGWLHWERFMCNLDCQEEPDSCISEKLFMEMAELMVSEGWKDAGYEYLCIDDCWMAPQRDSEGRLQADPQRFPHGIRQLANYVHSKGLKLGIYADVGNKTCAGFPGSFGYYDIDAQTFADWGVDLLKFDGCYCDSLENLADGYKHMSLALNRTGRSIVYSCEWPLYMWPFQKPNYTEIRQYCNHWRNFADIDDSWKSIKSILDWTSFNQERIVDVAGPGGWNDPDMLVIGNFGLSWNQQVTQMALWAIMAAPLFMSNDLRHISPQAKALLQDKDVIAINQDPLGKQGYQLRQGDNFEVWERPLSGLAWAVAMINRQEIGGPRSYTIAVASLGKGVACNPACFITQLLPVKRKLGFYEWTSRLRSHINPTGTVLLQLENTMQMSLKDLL

OC[C@H]1NC[C@H](O)[C@@H](O)[C@H]1O [migalastat, (2R,3S,4R,5S)-2-(hydroxymethyl) piperdine-3,4,5-triol]
Plasma lyso-Gb3, change from baseline, mean (plasma lyso-GB3; renal subgroup 30 to < 60): +0.5 nmol/L | Plasma lyso-Gb3, change from baseline, mean (plasma lyso-GB3; renal subgroup ≥60): 1.9 nmol/L | binding to the active site of wild-type α-Gal A and specific mutant forms of α-Gal A (α-Gal A): high affinity
